According to US20070072938A1, “DRONABINOL TREATMENT OF DELAYED CHEMOTHERAPY-INDUCED NAUSEA AND VOMITING” (priority 2005, published 2007):
Marks after values point to notes of the source that are not given here.

Legend:
[1] = tested on: patients receiving moderately to highly emetogenic chemotherapy; assay: Randomized, double-blind, placebo-controlled study: antiemetic efficacy in delayed CINV (Days 2-5); assay type: in vivo, human
Method: (§1) A randomized, double-blind, placebo-controlled, parallel-group study evaluating the antiemetic efficacy and tolerability of oral dronabinol alone, dronabinol in combination with ondansetron, ondansetron alone, and placebo in patients receiving moderate to high emetogenic chemotherapy was conducted. All patients received dexamethasone 20 mg and ondansetron 16 mg intravenously prechemotherapy. […] On Day 2, placebo or fixed doses of 10 mg dronabinol, 16 mg ondansetron, or dronabinol plus ondansetron were administered. On Days 3-5, patients received placebo, flexible doses of 10-20 mg dronabinol, 8-16 mg ondansetron, or dronabinol plus ondansetron. Rescue antiemetics were permitted after using the maximum dose of medication. The primary efficacy variable was total response (“TR”) to study medication (TR=nausea intensity<5 mm on a 100-mm visual analog scale, no vomiting/retching, no rescue antiemetic). Secondary efficacy parameters included nausea status and intensity, as well as episodes of vomiting/retching. […] TR and presence/absence of nausea were evaluated using the Fisher's Exact Test. Tolerability was assessed by physical examination and adverse events.
All efficacy analyses were based on the ITT population.
This was a randomized, double-blind, placebo-controlled, parallel-group, 5-day study to evaluate the antiemetic efficacy and safety of oral dronabinol (sole under the trade name, Marinol®) alone, and in combination with ondansetron (sole under the trade name, Zofran®), versus ondansetron alone in patients receiving moderately to highly emetogenic chemotherapy. The investigator obtained written approval from the Institutional Review Board, and the study was conducted in accordance with the Declaration of Helsinki.
Patients who entered the study were to undergo cancer chemotherapy with moderately to highly emetogenic agents on Day 1 when they were randomized into 1 of 4 treatment groups: dronabinol alone (Group Dronabinol), ondansetron alone (Group Ondansetron), combination therapy with dronabinol and ondansetron (Group Dronabinol/Ondansetron), or placebo (Group Placebo). All patients received a standard prechemotherapy regimen of dexamethasone (20 mg) and ondansetron (16 mg). […] Placebo patients received matching placebo prechemotherapy and postchemotherapy on Day 1.
(§2) A kit of open-label antiemetics (metoclopramide 10 mg, prochlorperazine 5 mg, and prochlorperazine 25-mg suppository) was provided to the study participants for use on Days 1 through 8 as rescue medications to treat intolerable nausea and vomiting and/or retching after using the maximum dose of study medication at any dosing interval. Patients recorded the use of rescue medication and returned the unused portion of the kit.
Each morning, patients recorded the number of vomiting and/or retching episodes in the previous day. In addition, the patient recorded the daily presence or absence of nausea and its duration.
The primary efficacy measure was the incidence of total response to treatment following administration of moderately to highly emetogenic chemotherapeutic agents. Total response was defined as no vomiting and/or retching, intensity of nausea <5 mm on a 100-mm Visual Analog Scale (VAS scale 0-100 mm; 0 mm=no nausea; 100 mm=intractable nausea), and no use of rescue medication.
The secondary efficacy analysis included patients who took rescue medication. However, analyses were conducted only on data collected before the use of any rescue medication. The secondary efficacy assessments were complete response, presence or absence of nausea, episodes of vomiting and/or retching, duration of nausea and vomiting and/or retching, intensity of nausea measured by VAS, ECOG (wellness), and QoL. Complete response for vomiting/retching was defined as no vomiting/retching, intensity of nausea of ≦30 mm on the VAS, and no use of rescue therapy.

[2] = tested on: patients receiving moderately to highly emetogenic chemotherapy; assay: Safety and tolerability: treatment-emergent adverse events (safety population); details: human, in vivo
Method: as §1
AEs and concomitant medications were also assessed.

[3] = tested on: patients receiving moderately to highly emetogenic chemotherapy; assay: Other analyses: rescue antiemetic use and compliance with study medication; assay type: in vivo, human
Method: as §2
For the primary efficacy parameter, a logistic regression model was used for the primary analysis and a Cochran-Mantel-Haenszel (“CMH”) test stratified by pooled center was performed as a supportive analysis. Continuous secondary efficacy parameters were analyzed for all pairwise comparisons using a 2-way analysis of variance (“ANOVA”) with treatment and pooled center as fixed factors. For data that was not normally distributed, data were ranked, and an ANOVA was performed on the ranked scores. Categorical secondary efficacy parameters were analyzed for all pairwise comparisons using the CMH test stratified by pooled center. No adjustment for multiple comparisons was performed for the secondary efficacy parameters. No interactions were examined for the secondary efficacy parameters. Compliance with study medication was defined as taking all doses of supplied medication and was measured throughout the trial.

SMILES: Cc1nccn1CC1CCc2c(c3ccccc3n2C)C1=O (centres unmarked) [Ondansetron, ondansetron]
- Duration of nausea: 3-6 h ([1]; Day 2): 0 n (%)
- Duration of nausea: 6-8 h ([1]; Day 2): 0 n (%)
- Duration of nausea: 8-10 h ([1]; Day 2): 0 n (%)
- Duration of nausea: <3 h ([1]; Day 2): 4 (33) n (%)
- Duration of nausea: >10 h ([1]; Day 2): 1 (8) n (%)
- Duration of nausea: No nausea reported ([1]; Day 2): 7 (58) n (%)
- Observed Duration of Vomiting/Retching (mean ± SD) ([1]; Day 2): 2.00 ± 6.93 h
- Duration of nausea: 3-6 h ([1]; Day 3): 0 n (%)
- Duration of nausea: 6-8 h ([1]; Day 3): 1 (10) n (%)
- Duration of nausea: 8-10 h ([1]; Day 3): 0 n (%)
- Duration of nausea: <3 h ([1]; Day 3): 1 (10) n (%)
- Duration of nausea: >10 h ([1]; Day 3): 0 n (%)
- Duration of nausea: No nausea reported ([1]; Day 3): 8 (80) n (%)
- Observed Duration of Vomiting/Retching (mean ± SD) ([1]; Day 3): 0.06 ± 0.17 h
- Duration of nausea: 3-6 h ([1]; Day 4): 0 n (%)
- Duration of nausea: 6-8 h ([1]; Day 4): 0 n (%)
- Duration of nausea: 8-10 h ([1]; Day 4): 0 n (%)
- Duration of nausea: <3 h ([1]; Day 4): 1 (13) n (%)
- Duration of nausea: >10 h ([1]; Day 4): 0 n (%)
- Duration of nausea: No nausea reported ([1]; Day 4): 7 (88) n (%)
- Observed Duration of Vomiting/Retching (mean ± SD) ([1]; Day 4): 0.00 ± 0.00 h
- Duration of nausea: 3-6 h ([1]; Day 5): 1 (14) n (%)
- Duration of nausea: 6-8 h ([1]; Day 5): 0 n (%)
- Duration of nausea: 8-10 h ([1]; Day 5): 0 n (%)
- Duration of nausea: <3 h ([1]; Day 5): 0 n (%)
- Duration of nausea: >10 h ([1]; Day 5): 0 n (%)
- Duration of nausea: No nausea reported ([1]; Day 5): 6 (86) n (%)
- Observed Duration of Vomiting/Retching (mean ± SD) ([1]; Day 5): 0.02 ± 0.06 h
- Absence of nausea ([1]; Days 2-5): 64^† %
- Absence of nausea (frequency/n) ([1]; Days 2-5): (9/14)
- Mean vomiting/retching ([1]; Days 2-5): 1.3 episodes/day
- Total response (frequency/n) ([1]; Days 2-5): (7/12)
- Mean nausea intensity ([1]; Days 2-5, 100-mm VAS): 24.0^† mm
- Absence of nausea ([1]; Days 2-5, listed as ondansetron): 64%
- Total response ([1]; Days 2-5 LOCF end point, TR = nausea <5 mm VAS, no vomiting/retching, no rescue): 58%
- Complete Response: No ([1]; LOCF End Point (Days 2-5)): 5 (42) n (%)
- Complete Response: Yes ([1]; LOCF End Point (Days 2-5)): 7 (58)* n (%)
- Adverse event: Asthenia [2]: 1 (6) n (%)
- Adverse event: Chest pain [2]: 2 (13) n (%)
- Adverse event: Constipation [2]: 2 (13) n (%)
- Adverse event: Diarrhea [2]: 1 (6) n (%)
- Adverse event: Dizziness [2]: 1 (6) n (%)
- Adverse event: Fatigue [2]: 1 (6) n (%)
- Adverse event: Headache [2]: 3 (19) n (%)
- Adverse event: Hyperglycemia [2]: 2 (13) n (%)
- Adverse event: Insomnia [2]: 2 (13) n (%)
- Patients who permanently discontinued study medication because of a TEAE [2]: 2 (13) n (%)
- Patients with at least 1 SAE [2]: 1 (6) n (%)
- Patients with at least 1 TEAE [2]: 14 (88) n (%)
- Patients with at least 1 TEAE leading to dose reduction [2]: 0 n (%)
- Patients with at least 1 severe TEAE [2]: 1 (6) n (%)
- patients who required rescue medicine ([3]; Day 5): 25%
- Rescue antiemetics used (patients) ([3]; whole study): 31%
